Test results: publication PMC11284787, “Ligand-Directed Labeling of the Adenosine A1 Receptor in Living Cells” (Journal of Medicinal Chemistry, 2024)

Assays:
[1] = test system: T1, endogenously expressed A1AR in DRG neurons; test: Live-cell confocal imaging of dorsal root ganglion (DRG) neurons; assay type: cell-based, rat
T1 construct: supporting the potential of the probe for selectively labeling endogenously expressed A1ARs; from tissue; host or cells: primary dorsal root ganglion neurons from adult male Sprague-Dawley rats
Source text: Finally, we evaluated the utility of ligand-directed probe 11 to selectively label and visualize the localization and distribution of endogenously expressed A1AR in a physiologically relevant system. Studies have shown that activation of A1ARs expressed on peripheral nociceptive neurons produces analgesic effects,[14],[17],[71] thereby supporting the clinical potential of targeting the A1ARs for the treatment of neuropathic pain. Dorsal root ganglion (DRG) neurons are sensory cells involved in the transmission of pain and they are reported to express the A1AR[72]−[75] along with its cognate adenosine A2AAR[76]−[78] and A3AR[74],[79] receptor subtypes.
Figure 9 Live-cell confocal imaging of dorsal root ganglion (DRG) neurons labeled with SulfoCy5 by ligand-directed chemistry using probe 11 (250 nM). […] Left-hand side frames represent the SulfoCy5 channel, middle frames represent brightfield and right-hand side frames represent merged images from both channels. Images are representative of images acquired in four independent experiments. Scale bar: 10 μm. […]
plates (Nunc Lab-Tek, Thermo Fischer Scientific), pre-coated with Poly-D-Lysine, at 20,000 cells per well in DMEM/10% FCS. 24 h post seeding, cells were transiently transfected with human SNAP-A1. Transient transfections were carried out following manufacturer’s protocol: used FuGENE (Promega) HD at 3:1 ratio of reagent to cDNA with a total of 300 ng cDNA per well. Transfection solutions were made up in Gibco Opti-MEM (Thermo Fischer Scientific), incubated at RT for 5 min and added as 11 µL per well. Cells were incubated for additional 24 h at 37 OC, 5% CO2. Transient Transfection of NanoLuc-tagged human A 2AAR in HEK293T cell line was carried out as follows: 72 h prior to the experiment cells were removed from a confluent T75 flask and centrifuged. The pellet of cells was resuspended in 10 mL of fresh complete DMEM. […]

NL-hA2AAR = biological target: T2, NL-hA2AAR (Homo sapiens, UniProt P29274); test: NanoBRET competition ligand-binding assay (CA200645 tracer), NL-hA2AAR; settings: CA200645 (25 nM) tracer, transient HEK293T, mean ± SEM; read-out: affinity values pKi, NL-hA2AAR (converted)
T2 construct: expressed in transfected cells; host or cells: HEK293T, transient transfection (FuGENE)
T2 sequence (P29274 whole entry): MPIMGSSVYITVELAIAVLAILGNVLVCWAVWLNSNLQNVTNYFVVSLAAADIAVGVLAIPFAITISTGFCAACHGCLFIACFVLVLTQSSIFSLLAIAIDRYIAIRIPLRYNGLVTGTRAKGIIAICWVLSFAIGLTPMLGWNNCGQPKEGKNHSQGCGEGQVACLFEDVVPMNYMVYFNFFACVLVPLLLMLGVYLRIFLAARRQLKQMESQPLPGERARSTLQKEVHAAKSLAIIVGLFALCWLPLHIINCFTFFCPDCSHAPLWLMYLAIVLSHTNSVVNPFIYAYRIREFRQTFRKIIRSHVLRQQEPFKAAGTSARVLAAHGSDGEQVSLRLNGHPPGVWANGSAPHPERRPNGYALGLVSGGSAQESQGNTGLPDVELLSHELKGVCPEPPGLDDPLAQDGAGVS

NL-hA1AR = biological target: T3, NL-hA1AR (Homo sapiens, UniProt P30542); test: NanoBRET competition ligand-binding assay (CA200645 tracer), NL-hA1AR
T3 construct: expressed in transfected cells
T3 sequence (P30542 1-326): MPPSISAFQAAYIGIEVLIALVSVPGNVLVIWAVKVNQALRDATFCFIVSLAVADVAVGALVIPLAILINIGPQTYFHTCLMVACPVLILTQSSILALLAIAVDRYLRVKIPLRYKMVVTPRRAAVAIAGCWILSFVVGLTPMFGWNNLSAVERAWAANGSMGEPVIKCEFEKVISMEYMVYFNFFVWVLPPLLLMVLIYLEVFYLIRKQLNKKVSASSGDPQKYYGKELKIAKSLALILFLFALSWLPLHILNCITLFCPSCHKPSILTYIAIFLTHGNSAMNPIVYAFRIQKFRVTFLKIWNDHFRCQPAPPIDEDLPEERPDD

Compound | labeling of live DRG neurons ([1]; 250 nM, 2 h, adult Sprague-Dawley rat DRG) | labeling of DRG neurons after pretreatment with ZM241385 ([1]; 10 μM A2AAR-selective antagonist ZM241385) | fluorescence in DRG neurons after pretreatment with DPCPX ([1]; 10 μM DPCPX pretreatment) | Ki (NL-hA2AAR) | Ki (NL-hA1AR; CA200645 (25 nM) tracer, HEK293T cells, mean ± SEM, read-out: affinity values pKi, NL-hA1AR (converted)) | greater affinity for NL-A1AR over NL-A2AAR (competition binding) (NL-hA1AR; selectivity from pKi values) | greater affinity for NL-A1AR over NL-A2BAR (competition binding) (NL-hA1AR; selectivity from pKi values) | greater affinity for NL-A1AR over NL-A3AR (competition binding) (NL-hA1AR; selectivity from pKi values)
CCCCn1c(=O)c2[nH]c(C34CCC(C(=O)NCCNC(=O)CCNC(=O)c5ccc(OC(=O)CCCCC[N+]6=C(/C=C/C=C/C=C7/N(C)c8ccc(S(=O)(=O)O)cc8C7(C)C)C(C)(C)c7cc(S(=O)(=O)[O-])ccc76)c(F)c5)(CC3)CC4)nc2n(CCCC)c1=O [Compound 11, 1-(6-(4-((3-((2-(4-(1,3-Dibutyl-2,6-dioxo-2,3,6,7-tetrahydro-1H-purin-8-yl)bicyclo[2.2.2]octane-1-carboxamido)ethyl)amino)-3-oxopropyl)carbamoyl)-2-fluorophenoxy)-6-oxohexyl)-3,3-dimethyl-2-((1E,3E)-5-((E)-1,3,3-trimethyl-5-sulfoindolin-2-ylidene)penta-1,3-dien-1-yl)-3H-indol-1-ium-5-sulfonate] | SulfoCy5-labeling | did not prevent the SulfoCy5 labeling | negligible fluorescence signal |  |  |  |  | 
CCCCn1c(=O)c2[nH]c(C34CCC(C(=O)NCCNC(=O)CCNC(=O)c5ccc(OC(=O)CCC(=O)NCCOCCOCCNC(=O)O[C@H]6CC/C=C/CCC6)c(F)c5)(CC3)CC4)nc2n(CCCC)c1=O [Compound 12, 4-((3-((2-(4-(1,3-Dibutyl-2,6-dioxo-2,3,6,7-tetrahydro-1H-purin-8-yl)bicyclo[2.2.2]octane-1-carboxamido)ethyl)amino)-3-oxopropyl)carbamoyl)-2-fluorophenyl (R,E)-1-(Cyclooct-4-en-1-yloxy)-1,12-dioxo-5,8-dioxa-2,11-diazapentadecan-15-oate] |  |  |  | 1380 nM | 13.5 nM | 104 fold | 61 fold | 857 fold
